Where “and” joins values, the source holds several entries; their conditions need not be identical. Equal entries are not always repeated. Each block holds one compound with its values, some of them ahead of it.
Tested on: 653999-131-R-J2-PDC complex spheroids, growth % test/control
Test: Anticancer human tumor 653999-131-R-J2-PDC patient-derived lung adenocarcinoma cell line growth inhibition [AhR]
Conditions: for viability, T/C: stronger effect = lower value
Procedure, shortened: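 Spheroids combined tumor cells with HUVEC endothelial cells and human MSCs as stroma. AhR antagonists were paired with standard or investigational drugs, each dosed in half-log steps down from near clinical Cmax, or from 10 microM where Cmax was unknown.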

[1] = curve of first compound, second compound 0.1 µM
[2] = curve of first compound, second compound 0.316 µM
[3] = curve of first compound, second compound 1 µM
[4] = curve of first compound, second compound 3.16 µM
[5] = curve of first compound, second compound 10 µM
[6] = second compound 0.1 µM, first compound 0.0316 µM
[7] = second compound 0.1 µM, first compound 0.1 µM
[8] = second compound 0.1 µM, first compound 0.316 µM
[9] = second compound 0.1 µM, first compound 1 µM
[10] = second compound 0.316 µM, first compound 0.0316 µM
[11] = second compound 0.316 µM, first compound 0.1 µM
[12] = second compound 0.316 µM, first compound 0.316 µM
[13] = second compound 0.316 µM, first compound 1 µM
[14] = second compound 1 µM, first compound 0.0316 µM
[15] = second compound 1 µM, first compound 0.1 µM
[16] = second compound 1 µM, first compound 0.316 µM
[17] = second compound 1 µM, first compound 1 µM
[18] = second compound 3.16 µM, first compound 0.0316 µM
[19] = second compound 3.16 µM, first compound 0.1 µM
[20] = second compound 3.16 µM, first compound 0.316 µM
[21] = second compound 3.16 µM, first compound 1 µM
[22] = second compound 10 µM, first compound 0.0316 µM
[23] = second compound 10 µM, first compound 0.1 µM
[24] = second compound 10 µM, first compound 0.316 µM
[25] = second compound 10 µM, first compound 1 µM
[26] = second compound 0.1 µM, first compound 0.00949 µM
[27] = second compound 0.1 µM, first compound 0.03 µM
[28] = second compound 0.1 µM, first compound 0.0949 µM
[29] = second compound 0.1 µM, first compound 0.3 µM
[30] = second compound 0.316 µM, first compound 0.00949 µM
[31] = second compound 0.316 µM, first compound 0.03 µM
[32] = second compound 0.316 µM, first compound 0.0949 µM
[33] = second compound 0.316 µM, first compound 0.3 µM
[34] = second compound 1 µM, first compound 0.00949 µM
[35] = second compound 1 µM, first compound 0.03 µM
[36] = second compound 1 µM, first compound 0.0949 µM
[37] = second compound 1 µM, first compound 0.3 µM
[38] = second compound 3.16 µM, first compound 0.00949 µM
[39] = second compound 3.16 µM, first compound 0.03 µM
[40] = second compound 3.16 µM, first compound 0.0949 µM
[41] = second compound 3.16 µM, first compound 0.3 µM
[42] = second compound 10 µM, first compound 0.00949 µM
[43] = second compound 10 µM, first compound 0.03 µM
[44] = second compound 10 µM, first compound 0.0949 µM
[45] = second compound 10 µM, first compound 0.3 µM
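Also: spheroids exposed to agents for seven days.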
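For viability, T/C in this document: 100% = DMSO vehicle control viability.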

SMILES: Nc1ncn(C2CC(O)C(CO)S2)c(=O)n1 (stereo unspecified)
- viability, T/C (compound 0.000949 µM): 101% and 99.4% and 103%
- viability, T/C (compound 0.003 µM): 96.3% and 106% and 112%
- viability, T/C (compound 0.00949 µM): 98.4% and 110% and 100%
- viability, T/C (compound 0.03 µM): 94.8% and 91% and 102%
- viability, T/C (compound 0.0949 µM): 94.3% and 101% and 104%
- viability, T/C (compound 0.3 µM): 86.8% and 100% and 89%
- IC50 (curve of compound): > 300 nM

SMILES: Nc1ncn(C2CC(O)C(CO)O2)c(=O)n1 (stereo unspecified) + Cc1ccccc1N=Nc1ccc(NC(=O)c2ccnn2C)c(C)c1
- IC50 [1]: > 1000 nM
- IC50 [2]: > 1000 nM
- IC50 [3]: > 1000 nM
- IC50 [4]: > 1000 nM
- IC50 [5]: > 1000 nM
- viability, T/C (second compound 0.1 µM, first compound 0.00316 µM): 97.5%
- viability, T/C (second compound 0.1 µM, first compound 0.01 µM): 99.3%
- viability, T/C [6]: 95.5%
- viability, T/C [7]: 87.5%
- viability, T/C [8]: 79.9%
- viability, T/C [9]: 76.9%
- viability, T/C (second compound 0.316 µM, first compound 0.00316 µM): 100%
- viability, T/C (second compound 0.316 µM, first compound 0.01 µM): 93.8%
- viability, T/C [10]: 80.8%
- viability, T/C [11]: 83.2%
- viability, T/C [12]: 81.1%
- viability, T/C [13]: 71.7%
- viability, T/C (second compound 1 µM, first compound 0.00316 µM): 87.5%
- viability, T/C (second compound 1 µM, first compound 0.01 µM): 94.6%
- viability, T/C [14]: 88%
- viability, T/C [15]: 93.3%
- viability, T/C [16]: 78.9%
- viability, T/C [17]: 78.1%
- viability, T/C (second compound 3.16 µM, first compound 0.00316 µM): 88.6%
- viability, T/C (second compound 3.16 µM, first compound 0.01 µM): 92.9%
- viability, T/C [18]: 88%
- viability, T/C [19]: 77.8%
- viability, T/C [20]: 84.7%
- viability, T/C [21]: 72.7%
- viability, T/C (second compound 10 µM, first compound 0.00316 µM): 84.3%
- viability, T/C (second compound 10 µM, first compound 0.01 µM): 78.7%
- viability, T/C [22]: 82.7%
- viability, T/C [23]: 78.6%
- viability, T/C [24]: 77.5%
- viability, T/C [25]: 70.8%

SMILES: CC(C)CC(NC(=O)C(Cc1ccccc1)NC(=O)c1cnccn1)B(O)O (stereo unspecified)
- viability, T/C (compound 0.000949 µM): 112% and 106% and 110%
- viability, T/C (compound 0.003 µM): 118% and 114% and 124%
- viability, T/C (compound 0.00949 µM): 107% and 96.5% and 60.7%
- viability, T/C (compound 0.03 µM): 30.4% and 28.9% and 21.5%
- viability, T/C (compound 0.0949 µM): 11.3% and 14.9% and 9.51%
- viability, T/C (compound 0.3 µM): 3.46% and 4.18% and 3.51%
- IC50 (curve of compound): 22.4 nM and 21.1 nM and 12.4 nM

SMILES: CC(C)CC(NC(=O)C(Cc1ccccc1)NC(=O)c1cnccn1)B(O)O (stereo unspecified) + CC(CO)NC(=O)c1cc(-c2ccc(Cl)cc2)nn(-c2cnn(C)c2)c1=O
- IC50 [1]: 14.1 nM
- IC50 [2]: 13.4 nM
- IC50 [3]: 15.4 nM
- IC50 [4]: 15.7 nM
- IC50 [5]: 16.4 nM
- viability, T/C (second compound 0.1 µM, first compound 0.000949 µM): 108%
- viability, T/C (second compound 0.1 µM, first compound 0.003 µM): 116%
- viability, T/C [26]: 65.1%
- viability, T/C [27]: 20.3%
- viability, T/C [28]: 9.49%
- viability, T/C [29]: 3.53%
- viability, T/C (second compound 0.316 µM, first compound 0.000949 µM): 111%
- viability, T/C (second compound 0.316 µM, first compound 0.003 µM): 121%
- viability, T/C [30]: 64.6%
- viability, T/C [31]: 17.8%
- viability, T/C [32]: 11.5%
- viability, T/C [33]: 2.06%
- viability, T/C (second compound 1 µM, first compound 0.000949 µM): 101%
- viability, T/C (second compound 1 µM, first compound 0.003 µM): 122%
- viability, T/C [34]: 73.4%
- viability, T/C [35]: 19.5%
- viability, T/C [36]: 14.9%
- viability, T/C [37]: 4.87%
- viability, T/C (second compound 3.16 µM, first compound 0.000949 µM): 121%
- viability, T/C (second compound 3.16 µM, first compound 0.003 µM): 120%
- viability, T/C [38]: 73.3%
- viability, T/C [39]: 20.1%
- viability, T/C [40]: 12.1%
- viability, T/C [41]: 4.74%
- viability, T/C (second compound 10 µM, first compound 0.000949 µM): 99.5%
- viability, T/C (second compound 10 µM, first compound 0.003 µM): 117%
- viability, T/C [42]: 74.5%
- viability, T/C [43]: 22.1%
- viability, T/C [44]: 12.8%
- viability, T/C [45]: 2.47%

Further lines, with some results ahead:

- IC50 [1]: > 10000 nM
- IC50 [2]: > 10000 nM
- IC50 [3]: > 10000 nM
- IC50 [4]: > 10000 nM
- IC50 [5]: 3010 nM
SMILES: O=C(c1cc(Cc2n[nH]c(=O)c3ccccc23)ccc1F)N1CCN(C(=O)C2CC2)CC1 + Cc1cncc(-c2nc(NCCc3c[nH]c4ccccc34)c3ncn(C(C)C)c3n2)c1
- viability, T/C [6]: 99.2%
- viability, T/C [7]: 101%
- viability, T/C [8]: 92.2%
- viability, T/C [9]: 94%
- viability, T/C (second compound 0.1 µM, first compound 3.16 µM): 97.7%
- viability, T/C (second compound 0.1 µM, first compound 10 µM): 79.3%
- viability, T/C [10]: 96.2%
- viability, T/C [11]: 106%
- viability, T/C [12]: 97.1%
- viability, T/C [13]: 102%
- viability, T/C (second compound 0.316 µM, first compound 3.16 µM): 91.5%
- viability, T/C (second compound 0.316 µM, first compound 10 µM): 86.3%
- viability, T/C [14]: 108%
- viability, T/C [15]: 114%
- viability, T/C [16]: 112%
- viability, T/C [17]: 103%
- viability, T/C (second compound 1 µM, first compound 3.16 µM): 96.9%
- viability, T/C (second compound 1 µM, first compound 10 µM): 91.3%
- viability, T/C [18]: 102%
- viability, T/C [19]: 109%
- viability, T/C [20]: 112%
- viability, T/C [21]: 114%
- viability, T/C (second compound 3.16 µM, first compound 3.16 µM): 101%
- viability, T/C (second compound 3.16 µM, first compound 10 µM): 91.3%
- viability, T/C [22]: 61.2%
- viability, T/C [23]: 61.1%
- viability, T/C [24]: 55.1%
- viability, T/C [25]: 55.5%
- viability, T/C (second compound 10 µM, first compound 3.16 µM): 49.3%
- viability, T/C (second compound 10 µM, first compound 10 µM): 44.7%

- IC50 [1]: 839 nM
- IC50 [2]: 586 nM
- IC50 [3]: 864 nM
- IC50 [4]: 1960 nM
- IC50 [5]: > 3000 nM
SMILES: O=C(C=Cn1cnc(-c2cc(C(F)(F)F)cc(C(F)(F)F)c2)n1)NNc1cnccn1 + Cc1ccccc1N=Nc1ccc(NC(=O)c2ccnn2C)c(C)c1
- viability, T/C [26]: 106%
- viability, T/C [27]: 76.8%
- viability, T/C [28]: 72.7%
- viability, T/C [29]: 49.5%
- viability, T/C (second compound 0.1 µM, first compound 0.949 µM): 48.9%
- viability, T/C (second compound 0.1 µM, first compound 3 µM): 48%
- viability, T/C [30]: 91.8%
- viability, T/C [31]: 93.3%
- viability, T/C [32]: 70.5%
- viability, T/C [33]: 55.8%
- viability, T/C (second compound 0.316 µM, first compound 0.949 µM): 45.3%
- viability, T/C (second compound 0.316 µM, first compound 3 µM): 47.9%
- viability, T/C [34]: 94.4%
- viability, T/C [35]: 91.1%
- viability, T/C [36]: 66%
- viability, T/C [37]: 56.9%
- viability, T/C (second compound 1 µM, first compound 0.949 µM): 49.3%
- viability, T/C (second compound 1 µM, first compound 3 µM): 47.4%
- viability, T/C [38]: 105%
- viability, T/C [39]: 81.1%
- viability, T/C [40]: 75.9%
- viability, T/C [41]: 58.4%
- viability, T/C (second compound 3.16 µM, first compound 0.949 µM): 55.7%
- viability, T/C (second compound 3.16 µM, first compound 3 µM): 47%
- viability, T/C [42]: 85.7%
- viability, T/C [43]: 83.8%
- viability, T/C [44]: 66.7%
- viability, T/C [45]: 53.6%
- viability, T/C (second compound 10 µM, first compound 0.949 µM): 52%
- viability, T/C (second compound 10 µM, first compound 3 µM): 49%

- IC50 (curve of compound): > 10000 nM and 8160 nM
SMILES: CC1COCCN1c1cc(C2(S(C)(=N)=O)CC2)nc(-c2ccnc3[nH]ccc23)n1 (stereo unspecified)
- viability, T/C (compound 0.0316 µM): 109% and 102% and 99.7%
- viability, T/C (compound 0.1 µM): 110% and 106% and 102%
- viability, T/C (compound 0.316 µM): 104% and 101% and 107%
- viability, T/C (compound 1 µM): 101% and 98.8% and 94.3%
- viability, T/C (compound 3.16 µM): 87.2% and 70.5% and 81.3%
- viability, T/C (compound 10 µM): 50.6% and 45.6% and 57.8%
